# Assay results: paper PMC9501633, “Synthesis, Characterisation and Mechanism of Action of Anticancer 3-Fluoroazetidin-2-ones” (Pharmaceuticals, 2022)
# Tests used:
# [1] = tested on: CCRF-CEM; test: NCI 60 cell line screen, Leukaemia; format: cell-based, human; conditions: one dose 10 µM; for inhibition at 10 µM: Homo sapiens
# [2] = tested on: K-562; test: NCI 60 cell line screen, Leukaemia; format: cell-based, human; conditions: for inhibition at 10 µM: Homo sapiens, K562, one dose 10 µM; for Growth %: one dose 10 µM
# [3] = tested on: A549/A TCC; test: NCI 60 cell line screen, NSCLung; format: cell-based, human; conditions: one dose 10 µM; for inhibition at 10 µM: Homo sapiens
# [4] = tested on: NCI-H322M; test: NCI 60 cell line screen, NSCLung; format: cell-based, human; conditions: one dose 10 µM; for inhibition at 10 µM: Homo sapiens
# [5] = tested on: NCI-H460; test: NCI 60 cell line screen, NSCLung; format: cell-based, human; conditions: one dose 10 µM; for inhibition at 10 µM: Homo sapiens
# [6] = tested on: COLO 205; test: NCI 60 cell line screen, Colon; format: cell-based, human; conditions: one dose 10 µM; for inhibition at 10 µM: Homo sapiens
# [7] = tested on: HCC-2998; test: NCI 60 cell line screen, Colon; format: cell-based, human; conditions: one dose 10 µM; for inhibition at 10 µM: Homo sapiens
# [8] = tested on: SF-539; test: NCI 60 cell line screen, CNS; format: cell-based, human; conditions: one dose 10 µM; for inhibition at 10 µM: Homo sapiens
# [9] = tested on: SNB-19; test: NCI 60 cell line screen, CNS; format: cell-based, human; conditions: one dose 10 µM; for inhibition at 10 µM: Homo sapiens
# [10] = tested on: SNB-75; test: NCI 60 cell line screen, CNS; format: cell-based, human; conditions: one dose 10 µM; for inhibition at 10 µM: Homo sapiens
# [11] = tested on: LOX IMVI; test: NCI 60 cell line screen, Melanoma; format: cell-based, human; conditions: one dose 10 µM; for inhibition at 10 µM: Homo sapiens
# [12] = tested on: MALME-3M; test: NCI 60 cell line screen, Melanoma; format: cell-based, human; conditions: one dose 10 µM; for inhibition at 10 µM: Homo sapiens
# [13] = tested on: UACC-62; test: NCI 60 cell line screen, Melanoma; format: cell-based, human; conditions: one dose 10 µM; for inhibition at 10 µM: Homo sapiens
# [14] = tested on: OVCAR-5; test: NCI 60 cell line screen, Ovarian; format: cell-based, human; conditions: one dose 10 µM; for inhibition at 10 µM: Homo sapiens
# [15] = tested on: OVCAR-8; test: NCI 60 cell line screen, Ovarian; format: cell-based, human; conditions: one dose 10 µM; for inhibition at 10 µM: Homo sapiens
# [16] = tested on: NCI/ADR-RES; test: NCI 60 cell line screen, Ovarian; format: cell-based, human; conditions: one dose 10 µM; for inhibition at 10 µM: Homo sapiens
# [17] = tested on: 786–0; test: NCI 60 cell line screen, Renal; format: cell-based, human; conditions: 786-0, one dose 10 µM; for inhibition at 10 µM: Homo sapiens
# [18] = tested on: RXF 393; test: NCI 60 cell line screen, Renal; format: cell-based, human; conditions: one dose 10 µM; for inhibition at 10 µM: Homo sapiens
# [19] = tested on: SN12C; test: NCI 60 cell line screen, Renal; format: cell-based, human; conditions: one dose 10 µM; for inhibition at 10 µM: Homo sapiens
# [20] = tested on: UO-31; test: NCI 60 cell line screen, Renal; format: cell-based, human; conditions: one dose 10 µM; for inhibition at 10 µM: Homo sapiens
# [21] = tested on: PC-3; test: NCI 60 cell line screen, Prostate; format: cell-based, human; conditions: one dose 10 µM; for inhibition at 10 µM: Homo sapiens
# [22] = tested on: MCF7; test: NCI 60 cell line screen, Breast; format: cell-based, human; conditions: one dose 10 µM; for inhibition at 10 µM: Homo sapiens, MCF7, MCF7; for Growth % / Inhibition %: MCF7
# [23] = tested on: MDA-MB-231/ATCC; test: NCI 60 cell line screen, Breast; format: cell-based, human; conditions: one dose 10 µM; for inhibition at 10 µM: Homo sapiens
# [24] = tested on: BT-549; test: NCI 60 cell line screen, Breast; format: cell-based, human; conditions: one dose 10 µM; for inhibition at 10 µM: Homo sapiens
# [25] = tested on: NCI 60 cell line panel; test: NCI 60 cell line screen, whole panel; format: cell-based; conditions: for inhibition at 10 µM: Homo sapiens, 60 cell, one dose 10 μM, mean over the 60 cell lines, read-out: mean growth inhibition; for mean Growth %: one dose 10 µM, mean over the cell lines
# Method: The antiproliferative effects of selected compounds 33, 37 and 43 were initially evaluated in the NCI 60 cell line screen at 10 μM concentration (see Supplementary Materials Table S3). […] . […] .
# Compound 33 was next selected for evaluation in the NCI 60 cell line five-dose screen. The GI50 (50% growth inhibition), TGI (total growth inhibition) and LC50 (50% lethal concentration) were determined in the NCI panel of 60 cell lines, using the sulphorhodamine B (SRB) protein assay (Table 5). The GI50 value provides the growth inhibition of the selected compound, while the cytotoxic effect is evaluated in the LC50 value. […] . […] . Glioblastoma is an aggressive and fast-growing brain tumour with a median survival time of 9–16 months from diagnosis, and these tumours quickly evolve resistance to temozolomide chemotherapy, which is the only FDA-approved treatment. […] . Further mechanistic and cellular studies were carried out and are described below.
# aData obtained from NCI in vitro human tumour cell screen 1 dose assay (10 µM). 33 (NCI
structure (smiles),measurement,setting,value
"CCOc1ccc(C2N(c3cc(OC)c(OC)c(OC)c3)C(=O)C2(F)F)cc1 (stereo not drawn) [Compound 37, 4-(4-Ethoxyphenyl)-3,3-difluoro-1-(3,4,5-trimethoxyphenyl)azetidin-2-one]",inhibition at 10 µM,[1],89.8%
same,Growth %,[1],10.2%
same,inhibition at 10 µM,[2],91.5%
same,Growth %,[2],8.49%
same,inhibition at 10 µM,[3],66.4%
same,Growth %,[3],33.56%
same,inhibition at 10 µM,[4],32.8%
same,Growth %,[4],67.23%
same,inhibition at 10 µM,[5],87.3%
same,Growth %,[5],12.73%
same,inhibition at 10 µM,[6],89.2%
same,Growth %,[6],10.78%
same,inhibition at 10 µM,[7],18.3%
same,Growth %,[7],81.66%
same,inhibition at 10 µM,[8],89.2%
same,Growth %,[8],10.75%
same,inhibition at 10 µM,[9],45.9%
same,Growth %,[9],54.14%
same,inhibition at 10 µM,[10],44.1%
same,Growth %,[10],55.93%
same,inhibition at 10 µM,[11],72.4%
same,Growth %,[11],27.57%
same,inhibition at 10 µM,[12],36.9%
same,Growth %,[12],63.07%
same,inhibition at 10 µM,[13],48.4%
same,Growth %,[13],51.61%
same,inhibition at 10 µM,[14],33.5%
same,Growth %,[14],66.47%
same,inhibition at 10 µM,[15],56.8%
same,Growth %,[15],43.23%
same,inhibition at 10 µM,[16],71.1%
same,Growth %,[16],28.94%
same,Growth %,[17],64.68%
same,inhibition at 10 µM,[17],35.3%
same,inhibition at 10 µM,[18],45.8%
same,Growth %,[18],54.19%
same,inhibition at 10 µM,[19],49%
same,Growth %,[19],50.97%
same,inhibition at 10 µM,[20],48.1%
same,Growth %,[20],51.9%
same,inhibition at 10 µM,[21],62.7%
same,Growth %,[21],37.3%
same,inhibition at 10 µM,[22],82.8%
same,Growth %,[22],17.19%
same,Inhibition %,[22],82.8%
same,inhibition at 10 µM,[23],53.9%
same,Growth %,[23],46.12%
same,inhibition at 10 µM,[24],55.8%
same,Growth %,[24],44.17%
same,inhibition at 10 µM,[25],59%
same,mean Growth %,[25],41.05%
"COc1ccc(C2N(c3cc(OC)c(OC)c(OC)c3)C(=O)C2(F)F)cc1F (stereo not drawn) [Compound 43, 3,3-Difluoro-4-(3-fluoro-4-methoxyphenyl)-1-(3,4,5-trimethoxyphenyl)azetidin-2-one]",inhibition at 10 µM,[1],87%
same,Growth %,[1],12.96%
same,inhibition at 10 µM,[2],89.5%
same,Growth %,[2],10.5%
same,inhibition at 10 µM,[3],51.4%
same,Growth %,[3],48.65%
same,inhibition at 10 µM,[4],8.79%
same,Growth %,[4],91.21%
same,inhibition at 10 µM,[5],72.8%
same,Growth %,[5],27.15%
same,inhibition at 10 µM,[6],83.7%
same,Growth %,[6],16.32%
same,inhibition at 10 µM,[7],15.8%
same,Growth %,[7],84.2%
same,inhibition at 10 µM,[8],78.3%
same,Growth %,[8],21.65%
same,inhibition at 10 µM,[9],47.1%
same,Growth %,[9],52.93%
same,inhibition at 10 µM,[10],35.3%
same,Growth %,[10],64.74%
same,inhibition at 10 µM,[11],72.9%
same,Growth %,[11],27.06%
same,inhibition at 10 µM,[12],35.9%
same,Growth %,[12],64.09%
same,inhibition at 10 µM,[13],44.5%
same,Growth %,[13],55.46%
same,inhibition at 10 µM,[14],21.3%
same,Growth %,[14],78.72%
same,inhibition at 10 µM,[15],55.9%
same,Growth %,[15],44.07%
same,inhibition at 10 µM,[16],67.1%
same,Growth %,[16],32.94%
same,Growth %,[17],75.35%
same,inhibition at 10 µM,[17],24.6%
same,inhibition at 10 µM,[18],50.6%
same,Growth %,[18],49.36%
same,inhibition at 10 µM,[19],45.1%
same,Growth %,[19],54.92%
same,inhibition at 10 µM,[20],46.5%
same,Growth %,[20],53.48%
same,inhibition at 10 µM,[21],64.1%
same,Growth %,[21],35.89%
same,inhibition at 10 µM,[22],84.9%
same,Growth %,[22],15.06%
same,Inhibition %,[22],84.9%
same,inhibition at 10 µM,[23],46%
same,Growth %,[23],54.02%
same,inhibition at 10 µM,[24],65%
same,Growth %,[24],34.99%
same,inhibition at 10 µM,[25],56.4%
same,mean Growth %,[25],43.57%
